# Tests used:
# [1] = compared with the parent ifosfamide; cited from earlier work
# GLUT7 = target: T1, GLUT7 (Homo sapiens, UniProt Q6PXP3); settings: literature; cited from earlier work
# T1 construct: host or cells: Xenopus oocytes mainly; also COS-7, CHO, yeast variants (not tied to single values)
# T1 sequence (Q6PXP3 1-512): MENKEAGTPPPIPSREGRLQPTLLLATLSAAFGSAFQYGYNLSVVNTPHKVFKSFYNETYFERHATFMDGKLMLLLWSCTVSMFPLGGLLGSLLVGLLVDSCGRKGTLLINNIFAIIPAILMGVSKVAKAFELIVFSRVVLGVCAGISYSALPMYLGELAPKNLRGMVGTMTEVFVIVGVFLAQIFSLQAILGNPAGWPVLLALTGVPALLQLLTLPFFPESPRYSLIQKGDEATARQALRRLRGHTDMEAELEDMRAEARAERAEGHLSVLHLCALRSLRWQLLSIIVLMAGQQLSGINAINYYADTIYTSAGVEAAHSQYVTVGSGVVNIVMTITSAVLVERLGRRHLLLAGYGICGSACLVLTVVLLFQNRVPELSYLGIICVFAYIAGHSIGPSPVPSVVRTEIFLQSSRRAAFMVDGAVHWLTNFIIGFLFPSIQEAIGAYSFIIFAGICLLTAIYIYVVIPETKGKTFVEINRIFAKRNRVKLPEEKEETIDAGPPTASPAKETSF
# GLUT5 = target: T2, GLUT5 (Homo sapiens, UniProt P22732); settings: literature; cited from earlier work
# T2 construct: host or cells: Xenopus oocytes mainly; also COS-7, CHO, yeast variants (not tied to single values)
# T2 sequence (P22732 1-501): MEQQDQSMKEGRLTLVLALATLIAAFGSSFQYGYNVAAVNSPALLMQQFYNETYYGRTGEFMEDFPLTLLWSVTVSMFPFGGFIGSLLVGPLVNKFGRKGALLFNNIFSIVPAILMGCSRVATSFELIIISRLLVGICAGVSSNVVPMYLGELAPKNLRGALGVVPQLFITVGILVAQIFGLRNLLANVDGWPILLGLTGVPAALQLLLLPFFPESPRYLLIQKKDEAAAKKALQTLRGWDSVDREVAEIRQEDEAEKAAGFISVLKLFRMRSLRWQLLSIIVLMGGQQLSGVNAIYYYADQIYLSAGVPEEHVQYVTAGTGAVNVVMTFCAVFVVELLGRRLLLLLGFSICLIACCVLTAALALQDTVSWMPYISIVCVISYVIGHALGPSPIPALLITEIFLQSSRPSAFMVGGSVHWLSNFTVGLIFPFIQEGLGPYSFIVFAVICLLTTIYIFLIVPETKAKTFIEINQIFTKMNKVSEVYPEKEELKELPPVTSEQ
# GLUT11 = target: T3, GLUT11 (Homo sapiens, UniProt Q9BYW1); settings: literature; cited from earlier work
# T3 construct: host or cells: Xenopus oocytes mainly; also COS-7, CHO, yeast variants (not tied to single values)
# T3 sequence (Q9BYW1 1-496): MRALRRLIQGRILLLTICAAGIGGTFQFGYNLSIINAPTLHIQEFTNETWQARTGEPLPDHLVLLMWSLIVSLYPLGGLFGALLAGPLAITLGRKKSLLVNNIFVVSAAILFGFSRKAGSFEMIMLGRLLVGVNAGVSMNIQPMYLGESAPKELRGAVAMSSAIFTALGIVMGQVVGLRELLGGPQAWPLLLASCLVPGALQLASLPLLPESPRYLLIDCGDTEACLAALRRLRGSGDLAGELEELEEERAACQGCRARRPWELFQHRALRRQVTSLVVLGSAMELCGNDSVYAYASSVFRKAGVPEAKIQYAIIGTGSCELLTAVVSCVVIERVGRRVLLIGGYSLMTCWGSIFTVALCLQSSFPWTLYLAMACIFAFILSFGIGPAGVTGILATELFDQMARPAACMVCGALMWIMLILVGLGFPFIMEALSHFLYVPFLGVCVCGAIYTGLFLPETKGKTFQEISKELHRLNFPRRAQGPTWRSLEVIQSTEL
# GLUT2 = target: T4, GLUT2 (Homo sapiens, UniProt P11168); settings: literature; cited from earlier work
# T4 construct: host or cells: Xenopus oocytes mainly; also COS-7, CHO, yeast variants (not tied to single values)
# T4 sequence (P11168 1-524): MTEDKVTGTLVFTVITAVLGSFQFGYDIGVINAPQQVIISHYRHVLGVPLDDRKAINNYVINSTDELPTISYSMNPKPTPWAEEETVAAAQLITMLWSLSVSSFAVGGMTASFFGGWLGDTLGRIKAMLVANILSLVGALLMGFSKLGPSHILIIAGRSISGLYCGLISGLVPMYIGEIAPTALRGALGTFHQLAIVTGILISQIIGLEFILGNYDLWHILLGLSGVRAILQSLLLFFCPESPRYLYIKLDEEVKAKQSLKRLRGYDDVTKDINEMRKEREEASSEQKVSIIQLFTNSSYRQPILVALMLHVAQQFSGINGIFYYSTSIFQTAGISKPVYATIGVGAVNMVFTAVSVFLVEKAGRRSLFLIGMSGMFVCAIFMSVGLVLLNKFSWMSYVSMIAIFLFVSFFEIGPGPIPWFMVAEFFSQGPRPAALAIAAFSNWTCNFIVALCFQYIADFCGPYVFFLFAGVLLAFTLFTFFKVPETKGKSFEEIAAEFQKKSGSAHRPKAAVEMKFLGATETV
# [2] = tested on: MCF10A (immortalized breast), MCF7 (breast cancer), A549 (non-small cell lung cancer), Du145 (prostrate cancer), RWPE (immortalized prostrate); experiment: Sugar transporter assay: uptake of sugar-fluorophore conjugates by intracellular fluorescence, normalized to cell number; type: cell-based; settings: 1 hour incubation; dose range 250-0 μM; five cell lines; compared with D-glucose conjugate
# Procedure: FIG. 5. Representative sugar transporter assays. […] For each cell line, the dose range was 250 μM, 125 μM, 62.5 μM, 31.3 μM, 15.6 μM, 7.8 μM, 3.9 μM and 0 μM. The average error (40 compounds, 5 cell lines) was 8.3%.
# For the sugar transporter assay of the present invention, cells were plated at a density of 30,000 cells/ml (100 μL/well) in a 96-well clear bottom microtiter plates. Cells were allowed to attach overnight, and then incubated in glucose-free medium for an additional 24 hours. Compounds were added (from 96-well compound stock plates at a 1:100 dilution) using a Biomek FX liquid handler equipped with a 96 channel head. The plates were incubated for 1 hour and then the compound solution was removed by gentle aspiration. The cells were subsequently washed (1×100 μL) with phosphate buffered saline to remove residual fluorescent dye.
# Sugar-conjugate uptake was assessed via intracellular fluorescence (FIG. 4b-4f) as determined using a Safire2™ multi-mode microplate reader (δex=485 nm, δem=535 nm) and normalized to cell number by a subsequent CellTiter-Glo® luminescent cell viability assay. […] The CellTiter-Glo® luminescent cell viability assay was analyzed on a Safire2™ multi-mode microplate reader for luminescence at 1 second per well. As an initial preliminary study, the transport assay with a representative set of probes was also analyzed using microscopy (FIG. 6).
# GLUT3 = target: T5, GLUT3 (Homo sapiens, UniProt P11169); settings: literature; cited from earlier work
# T5 construct: host or cells: Xenopus oocytes mainly; also COS-7, CHO, yeast variants (not tied to single values)
# T5 sequence (P11169 1-496): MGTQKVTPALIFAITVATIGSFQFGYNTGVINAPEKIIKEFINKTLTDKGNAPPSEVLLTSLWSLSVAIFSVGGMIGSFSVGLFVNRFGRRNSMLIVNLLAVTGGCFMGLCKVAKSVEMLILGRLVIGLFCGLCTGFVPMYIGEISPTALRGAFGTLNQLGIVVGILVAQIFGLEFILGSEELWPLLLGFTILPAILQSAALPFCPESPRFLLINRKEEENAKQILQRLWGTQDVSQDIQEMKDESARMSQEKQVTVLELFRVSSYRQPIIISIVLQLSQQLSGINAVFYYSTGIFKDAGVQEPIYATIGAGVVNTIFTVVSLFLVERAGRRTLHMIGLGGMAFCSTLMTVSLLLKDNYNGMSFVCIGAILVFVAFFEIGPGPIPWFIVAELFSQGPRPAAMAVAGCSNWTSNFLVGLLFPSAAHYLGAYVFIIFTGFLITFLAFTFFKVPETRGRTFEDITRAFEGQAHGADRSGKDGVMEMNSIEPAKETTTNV
# GLUT9 = target: T6, GLUT9 (Homo sapiens, UniProt Q9NRM0); settings: literature; cited from earlier work
# T6 construct: host or cells: Xenopus oocytes mainly; also COS-7, CHO, yeast variants (not tied to single values)
# T6 sequence (Q9NRM0 1-540): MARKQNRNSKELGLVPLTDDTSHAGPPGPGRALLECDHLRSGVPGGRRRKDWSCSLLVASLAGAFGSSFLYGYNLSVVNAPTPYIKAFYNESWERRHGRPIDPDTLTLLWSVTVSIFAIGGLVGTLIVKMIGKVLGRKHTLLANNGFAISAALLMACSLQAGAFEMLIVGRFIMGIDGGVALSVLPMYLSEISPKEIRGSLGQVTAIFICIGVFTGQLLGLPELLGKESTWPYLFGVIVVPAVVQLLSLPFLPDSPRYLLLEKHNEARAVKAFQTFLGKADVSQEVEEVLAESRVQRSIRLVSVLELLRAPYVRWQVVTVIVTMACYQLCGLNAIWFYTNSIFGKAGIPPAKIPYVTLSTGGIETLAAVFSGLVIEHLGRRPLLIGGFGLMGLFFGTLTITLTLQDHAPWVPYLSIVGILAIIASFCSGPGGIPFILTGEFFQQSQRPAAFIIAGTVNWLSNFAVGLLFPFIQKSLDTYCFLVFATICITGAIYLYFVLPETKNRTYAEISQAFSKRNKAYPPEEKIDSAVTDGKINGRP
compound,measurement,setting,value
O=P(NCCCl)(NCCCl)O[C@@H]1O[C@H](CO)[C@@H](O)[C@H](O)[C@H]1O [glufosfamide],antitumor activity,[1],higher antitumor activity
same,myelotoxicity,[1],lower myelotoxicity
O=C[C@H](O)[C@@H](O)[C@H](O)CO [xylose],transport by GLUT7,GLUT7,does not transport
O=C(CO)[C@@H](O)[C@H](O)[C@H](O)CO [fructose],affinity for GLUT5,GLUT5,approximately 1 mM
same,transport by GLUT11,GLUT11,provides for transport
N[C@H]1C(O)O[C@H](CO)[C@@H](O)[C@@H]1O (stereo partly drawn) [glucosamine],affinity for GLUT2,GLUT2,approximately 1 mM
aminofluoroscein [parent 11],sugar-conjugate uptake (intracellular fluorescence normalized to cell number),[2],No uptake
O=C[C@H](O)[C@@H](O)[C@@H](O)[C@H](O)CO [galactose],transport by GLUT7,GLUT7,does not transport
same,transport by GLUT11,GLUT11,not galactose
O=CC[C@@H](O)[C@H](O)[C@H](O)CO [2-deoxyglucose],affinity for GLUT3,GLUT3,approximately 1.5 mM
same,transport by GLUT7,GLUT7,does not transport
same,transport by GLUT9,GLUT9,transport
